The results in this text go back to ChEMBL document CHEMBL2434920, “Synthesis, characterization and in vitro biological evaluation of some novel 1,3,5-triazine-Schiff base conjugates as potential antimycobacterial agents” (Bioorg Med Chem Lett, 2013).

Assay [1] deals with Mycobacterium tuberculosis. Briefly: Antimycobacterial activity against Mycobacterium tuberculosis H37Rv assessed as growth inhibition after 5 days by microplate Alamar Blue assay. Particulars: 120 h. The format is functional. (The colour change of resazurin is a common sign of viable cells or microbes.)
A further assay has as its system Vero. Briefly: Cytotoxicity against African green monkey Vero cells assessed as cell viability after 72 hrs by MTT assay. Type of assay: cell-based. Particulars: Chlorocebus sabaeus. On the technique in general: Formazan colour is commonly taken as a measure of viable cells.

Converted amounts (≈) assume the structure as drawn. Some results are limits rather than exact numbers.

Regarding `COc1ccc(/C(C)=N/c2nc(C)nc(OC)n2)cc1`, in assay [1], the MIC was 50 µg/mL (≈ 184 µM). `COc1nc(C)nc(/N=C(\C)c2ccc(O)cc2O)n1`: the MIC in assay [1] amounted to 25 µg/mL (≈ 91.1 µM). Besides, the IC50 with Vero was > 50 µg/mL. Turning to `COc1nc(C)nc(/N=C/c2cccc([N+](=O)[O-])c2)n1`, in assay [1], the MIC amounted to 50 µg/mL (≈ 183 µM). On to `CN[C@@H]1[C@H](O[C@H]2[C@H](O[C@H]3[C@H](O)[C@@H](O)[C@H](N=C(N)N)[C@@H](O)[C@@H]3N=C(N)N)O[C@@H](C)[C@]2(O)C=O)O[C@@H](CO)[C@H](O)[C@H]1O` [STREPTOMYCIN], for which, in assay [1], the MIC amounted to 6.25 µg/mL (≈ 10.7 µM). Further, the IC50 in the assay with Vero was > 50 µg/mL. The corresponding values for `COc1nc(C)nc(/N=C(\C)c2ccccc2O)n1` are 25 µg/mL (≈ 96.8 µM) and > 50 µg/mL. The like results for `COc1nc(C)nc(/N=C/c2cccc(Br)c2)n1` were, in that order, 12.5 µg/mL (≈ 40.7 µM) and > 50 µg/mL. The like results for `COc1nc(C)nc(/N=C/c2ccc(Br)cc2)n1` were, in that order, 25 µg/mL (≈ 81.4 µM) and > 50 µg/mL. As for `COc1nc(C)nc(/N=C(\C)c2cccs2)n1`, the MIC in assay [1] stood at 25 µg/mL (≈ 101 µM). Besides, the IC50 with Vero was > 50 µg/mL. The like results for `CC[C@@H](CO)NCCN[C@@H](CC)CO` [ETHAMBUTOL] were, in that order, 3.12 µg/mL (≈ 15.3 µM) and > 50 µg/mL. The like results for `CCOc1cc(/C=N/c2nc(C)nc(OC)n2)ccc1O` were, in that order, 25 µg/mL (≈ 86.7 µM) and > 50 µg/mL.

With `COc1nc(C)nc(/N=C(\C)c2cccnc2)n1`, in assay [1], the MIC is 50 µg/mL (≈ 206 µM).

Take `COc1nc(C)nc(/N=C(\C)c2ccccc2)n1`: the MIC in assay [1] was found to be 50 µg/mL (≈ 206 µM). The same measure, in the same setting: the value for `COc1nc(C)nc(/N=C/c2ccccc2)n1` was 50 µg/mL (≈ 219 µM). Regarding `COc1nc(C)nc(/N=C/c2ccc(Cl)cc2)n1`, the MIC in assay [1] turned out to be 12.5 µg/mL (≈ 47.6 µM). Moreover, the IC50 in the assay on Vero is > 50 µg/mL. Take `COc1nc(C)nc(/N=C/c2cccnc2)n1`: the MIC in assay [1] turned out to be 50 µg/mL (≈ 218 µM). On the same count and under the same terms, the value for `COc1nc(C)nc(/N=C(\C)c2cc(C)ccc2O)n1` was 50 µg/mL (≈ 184 µM). For the molecule `NC(=O)c1cnccn1` [PYRAZINAMIDE], the minimal inhibitory concentration (MIC) in assay [1] was 3.12 µg/mL (≈ 25.4 µM). The IC50 with Vero is > 50 µg/mL.

On to `COc1nc(C)nc(/N=C/c2cc(OC)c(OC)c(OC)c2)n1`, for which the MIC in assay [1] is 3.12 µg/mL (≈ 9.82 µM). Moreover, the IC50 with Vero is > 50 µg/mL. The corresponding values for `COc1nc(C)nc(/N=C(\C)c2ccc(O)cc2)n1` are 25 µg/mL (≈ 96.8 µM) and > 50 µg/mL. With `COc1nc(C)nc(/N=C(\C)c2ccc3c(c2)Cc2ccccc2-3)n1`, the MIC in assay [1] was determined as 50 µg/mL (≈ 151 µM). Take `C=CCOc1ccc(/C=N/c2nc(C)nc(OC)n2)cc1`: the MIC in assay [1] turned out to be 25 µg/mL (≈ 87.9 µM). The IC50 in the assay on Vero is > 50 µg/mL. For the molecule `COc1nc(C)nc(/N=C(\C)c2ccc3ccccc3c2)n1`, in assay [1], the MIC came to 50 µg/mL (≈ 171 µM). On the same count and under the same terms, as for `COc1nc(C)nc(/N=C/c2c[nH]c3ccccc23)n1`, the figure is 50 µg/mL (≈ 187 µM). For `COc1cccc(/C(C)=N/c2nc(C)nc(OC)n2)c1`, the MIC in assay [1] was found to be 12.5 µg/mL (≈ 45.9 µM). Moreover, in the assay with Vero, the IC50 is > 50 µg/mL. The like results for `COc1nc(C)nc(/N=C/c2ccc(Cl)cc2Cl)n1` were, in that order, 12.5 µg/mL (≈ 42.1 µM) and > 50 µg/mL.

For the molecule `COc1nc(C)nc(/N=C/c2ccc[nH]2)n1`, the minimal inhibitory concentration (MIC) in assay [1] is 25 µg/mL (≈ 115 µM). For the same molecule, in the assay on Vero, the IC50 is > 50 µg/mL.

For the molecule `COc1nc(C)nc(/N=C/c2ccc(N(C)C)cc2)n1`, the MIC in assay [1] was found to be 25 µg/mL (≈ 92.1 µM). In addition, the IC50 with Vero is > 50 µg/mL. The like results for `COc1nc(C)nc(/N=C(\C)c2cc(O)ccc2O)n1` were, in that order, 6.25 µg/mL (≈ 22.8 µM) and > 50 µg/mL. The like results for `COc1nc(C)nc(/N=C(\C)c2ccc([N+](=O)[O-])cc2)n1` were, in that order, 12.5 µg/mL (≈ 43.5 µM) and > 50 µg/mL. The like results for `COc1nc(C)nc(/N=C/c2ccc(C)cc2)n1` were, in that order, 25 µg/mL (≈ 103 µM) and > 50 µg/mL. Turning to `COc1nc(C)nc(/N=C/c2cc(Cl)cc(Br)c2O)n1`, in assay [1], the MIC was 6.25 µg/mL (≈ 17.5 µM). The IC50 with Vero was > 50 µg/mL. Regarding `COc1nc(C)nc(/N=C/c2c3ccccc3cc3ccccc23)n1`, the MIC in assay [1] amounted to 50 µg/mL (≈ 152 µM). With `COc1nc(C)nc(/N=C(\C)c2cccc(C)c2O)n1`, in assay [1], the MIC stood at 50 µg/mL (≈ 184 µM). With `COc1nc(C)nc(/N=C(\C)c2ccc(C)cc2)n1`, the MIC in assay [1] came to 12.5 µg/mL (≈ 48.8 µM). Besides, in the assay with Vero, the IC50 was > 50 µg/mL. The like results for `COc1nc(C)nc(/N=C(\C)c2cccc([N+](=O)[O-])c2)n1` were, in that order, 25 µg/mL (≈ 87 µM) and > 50 µg/mL.

Broadly, the MIC is the lowest concentration that inhibits growth of the organism. In general, IC50 refers to the midpoint of a concentration-inhibition curve.
